Measured values reported in patent US20260224549A1, “COMPOUNDS, COMPOSITIONS, AND METHODS FOR TREATING, AMELIORATING, AND/OR PREVENTING PAIN” (priority 2023, published 2026).
Entries after “also recorded” stand apart in the source; their conditions may differ. Like-named read-outs stand apart in the source and are kept apart here.

Legend:
[1] = cited from earlier work
[2] = Hygroscopicity - Dynamic Vapor Sorption (DVS); format: physicochemical
Experimental: Hygroscopicity—Dynamic Vapor Sorption (DVS)
DVS is a gravimetric technique that measures how quickly and how much of a solvent (water) is sorbed by a sample. The relative humidity or vapor concentration surrounding the sample is varied while the change in mass of the sample is measured. […] The mass values at each relative humidity step are used to generate an isotherm. Isotherms are divided in two components: sorption for increasing humidity steps and desorption for decreasing humidity steps. A plot of kinetic data is also used to show the change in mass and humidity as a function of time.
The samples were analyzed using a TA Q5000 automated dynamic vapor sorption analyzer. The samples were dried at 60° C. over 180 minutes and then cooled to 25° C. with a dry nitrogen purge. The samples were then subjected to 0 to 90% RH, back to 10% RH at 25° C. in 10% RH steps.

[3] = Static vapor sorption studies; format: physicochemical; conditions: for Est. H2O Content (%) / Wt % Change: ambient temperature, 3 weeks, Form A staged
From the text: Static Vapor Sorption Studies
Static vapor sorption studies were done in hermetic humidity chambers using saturated salts, or environmental humidity chambers to control the temperature and humidity. Data collected during dynamic vapor sorption studies often are not at thermodynamic equilibrium. To gain a better understanding of the water uptake and the critical humidity level of the API, samples of the starting material (i.e., Form A) were monitored in static humidity chambers to allow the sample to equilibrate with atmospheric moisture.
In these studies, water vapor sorption was determined gravimetrically by storing samples in open aluminum dishes. Compound I diphosphate salt lot was used for this study. Samples were stored at 7 different humidity levels at ambient temperature (Table 19). Approximately 50 mg of Form A was staged at each humidity condition. The samples were weighed before placing them in the chamber and then re-weighed after 3 weeks. After re-weighing, the samples were immediately analyzed by XRD to determine whether a change in form had occurred.
The sample stored at 11% RH was an outlier and was therefore omitted from the final isotherm plot. The static isotherm plot is roughly consistent with the DVS isotherm plot (FIG. 12F) with a large moisture uptake at around 40% RH and a maximum uptake between 4 and 5 weight percent.

[4] = Solubility in water of salts; format: physicochemical
[5] = Thermal and storage stability of salts and forms; format: physicochemical; conditions: for stability at ambient conditions: storage
From the text: On the basis of the DSC data, the acetate salt may be a hydrate.
The amorphous form may be obtained by crystallization from anhydrous solvents or by thermal desolvation of the hydrate. In certain embodiments, the preferred polymorph of Compound I diphosphate is Compound I diphosphate monohydrate (Form A): […]

[6] = Phase I single ascending dose pharmacokinetics of metabolite Compound II in plasma; format: in vivo, human; conditions: for AUC(0-t): po; for Tmax: read-out: Tmax, Median
From the text: The study comprised a single ascending dose (SAD), sequential cohort study, incorporating a food effect (FE) evaluation. Up to 40 subjects were to be studied in 5 cohorts (Cohorts A1 to A5), each cohort consisting of 8 subjects.
The actual blood sampling dates and times relative to dosing time were listed by subject and nominal sampling time, with time deviation calculated, for all subjects with available plasma concentration data.
For PK concentration data, the number of non-missing values, number of below limit of quantification (BLQ) values, arithmetic mean, standard deviation, median, minimum, maximum, coefficient of variation (CV %), geometric mean and geometric coefficient of variation (geo CV %) values was presented.
For PK parameter data, the number of non-missing values, arithmetic mean, standard deviation, median, minimum, and maximum values were presented.

[7] = Metabolism in liver microsomes and hepatocytes in vitro; format: in vitro ADME
[8] = human, metabolite after 200 mg DS (Fasted), single oral dose, plasma
[9] = human, metabolite after 400 mg DS (Fasted), single oral dose, plasma
[10] = metabolite after 60 mg DS (Fasted), single oral dose, plasma
[11] = metabolite after 120 mg DS (Fasted), single oral dose, plasma
[12] = metabolite after 200 mg DS (Fasted), single oral dose, plasma
[13] = metabolite after 400 mg DS (Fasted), single oral dose, plasma

O=S(=O)(O)CCS(=O)(=O)O [1,2-Ethanedisulfonic acid]
pKa ([1]; first value listed): −2.1
pKa ([1]; second value listed): −1.5

O=S(=O)(O)c1cccc2c(S(=O)(=O)O)cccc12 [1,5-Naphthalenedisulfonic acid]
pKa ([1]; first value listed): −3.4
pKa ([1]; second value listed): −2.6

CC1(C)C2CCC1(CS(=O)(=O)O)C(=O)C2 (centres unmarked) [Camphorsulfonic acid]
pKa ([1]; first value listed): 2.2

CN(C)C[C@H]1CN(CCc2ccsc2)CC[C@]1(O)c1cccc(C(N)=O)c1 [Compound I diphosphate, 3-(3S,4R)-3-((dimethylamino)methyl)-4-hydroxy-1-(2-(thiophen-3-yl)ethyl)piperidin-4-yl-benzamide bisphosphate]
hygroscopicity ([2]; in words): moderately hygroscopic
Est. H2O Content (%) ([3]; 11% relative humidity): 3.1%
Wt % Change ([3]; 11% relative humidity): −0.2 Wt %
Est. H2O Content (%) ([3]; 22% relative humidity): 0.8%
Wt % Change ([3]; 22% relative humidity): −2.5 Wt %
Est. H2O Content (%) ([3]; 33% relative humidity): 1.8%
Wt % Change ([3]; 33% relative humidity): −1.5 Wt %
Est. H2O Content (%) ([3]; 43% relative humidity): 3.9%
Wt % Change ([3]; 43% relative humidity): +0.6 Wt %
Est. H2O Content (%) ([3]; 75% relative humidity): 4.1%
Wt % Change ([3]; 75% relative humidity): +0.8 Wt %
Est. H2O Content (%) ([3]; 84% relative humidity): 4.4%
Wt % Change ([3]; 84% relative humidity): +1.1 Wt %
Est. H2O Content (%) ([3]; 97% relative humidity): 4.8%
Wt % Change ([3]; 97% relative humidity): +1.5 Wt %
aqueous solubility [4]: high aqueous solubility
solubility in unbuffered water ([4]; unbuffered water): high solubility
stability (thermal, chemical) ([5]; in words, listed as diphosphate salt): more stable; also recorded: improved stability (thermally and chemically) over the other salts
stability at ambient conditions ([5]; listed as diphosphate salt): stable to storage under ambient conditions

CNC[C@H]1CN(CCc2ccsc2)CC[C@]1(O)c1cccc(C(N)=O)c1 [Compound II, 3-(3S, 4R)-3-((methylamino)methyl)-4-hydroxy-1-(2-(thiophen-3-yl)ethyl)piperidin-4-yl-benzamide]
MRAUC0-t, metabolite ratio (MEB-373/MEB1170 AUC0-t values), Mean ([6]; 200 mg DS (Fasted), single oral dose, plasma): 0.0231
MRAUC0-t, metabolite ratio (MEB-373/MEB1170 AUC0-t values), Mean ([6]; 400 mg DS (Fasted), single oral dose, plasma): 0.0276
half-life ([6]; human, plasma, oral, 400 mg dose group (n=5), read-out: mean plasma t1/2 (converted)): 0.902 h
half-life ([6]; human, plasma, oral, one individual at 200 mg, read-out: t1/2 (converted)): 2 h
AUC(0-t) ([6]; human, plasma, 200 mg, metabolite after 200 mg DS (Fasted), single oral dose, plasma, read-out: AUC0-t (zero to the time of the last quantifiable concentration), Mean): 8.77 ng·h/mL
AUC(0-t) ([6]; human, plasma, 400 mg, metabolite after 400 mg DS (Fasted), single oral dose, plasma, read-out: AUC0-last (zero to 24 hours postdose), Mean): 27.3 ng·h/mL
AUC(0-t) ([6]; human, plasma, 400 mg, metabolite after 400 mg DS (Fasted), single oral dose, plasma, read-out: AUC0-t (zero to the time of the last quantifiable concentration), Mean): 21.1 ng·h/mL
Cmax [6, 8]: 7.91 ng/mL
Tmax [6, 8]: 2.26 h
Cmax [6, 9]: 12.2 ng/mL
AUC(0-inf) ([6]; human, metabolite after 400 mg DS (Fasted), single oral dose, plasma, read-out: AUC0-inf, Mean): 28.7 ng·h/mL
Tmax [6, 9]: 2 h
half-life ([6]; human, metabolite after 400 mg DS (Fasted), single oral dose, plasma, read-out: t1/2 (terminal plasma half-life), Mean (converted)): 0.902 h
systemic exposures relative to Compound I ([6]; in vivo): very low relative to Compound I
Tlast, Max [6, 10]: 2.50 h
Tlast, Min [6, 10]: 2.50 h
Tlast, Max [6, 11]: 4.00 h
Tlast, Min [6, 11]: 2.50 h
Tmax, Max [6, 11]: 2.50 h
Tmax, Min [6, 11]: 2.50 h
Tlast (time of last measurable concentration), Median [6, 12]: 3.25 h
Tlast, Max [6, 12]: 4.00 h
Tlast, Min [6, 12]: 2.50 h
Tmax, Max [6, 12]: 2.50 h
Tmax, Min [6, 12]: 1.00 h
Tlast (time of last measurable concentration), Median [6, 13]: 4.00 h
Tlast, Max [6, 13]: 4.00 h
Tlast, Min [6, 13]: 2.50 h
Tmax, Max [6, 13]: 2.50 h
Tmax, Min [6, 13]: 1.50 h
plasma concentrations ([6]; most subjects at doses of 20, 60, and 120 (fed) mg): below the limit of assay quantitation
metabolite formation in vitro [7]: predominant metabolite of Compound I

CCS(=O)(=O)O [Ethanesulfonic acid]
pKa ([1]; first value listed): −2.1

CN(C)C[C@H]1CN(CCc2ccsc2)CC[C@]1(O)c1cccc(C(N)=O)c1 [Form A]
maximum water/moisture uptake ([2]; at 90% RH): 4.15 wt %
change of solid state form with humidity ([3]; XRD after storage at different humidity levels): did not change at any humidity level; also recorded: retains its structure in both low and high humidity environments
relative humidity of large moisture uptake ([3]; static isotherm): around 40 % RH
heating withstood by the hydrate [5]: ~ 70 °C
stability at ambient conditions [5]: stable at ambient conditions

O=C(O)CNC(=O)c1ccccc1 [Hippuric acid]
pKa ([1]; first value listed): 3.6

O=S(=O)(O)c1ccc2ccccc2c1 [Naphthalene-2-sulfonic acid]
pKa ([1]; first value listed): 0.2

CCCCCCCCCCCCCCCCCC(=O)O [Stearic acid]
pKa ([1]; first value listed): 4.9
